# Activity calls are given as the source filed them. The rule behind the calls is not given here.
# Legend:
# [1] = Cmax in mouse plasma at 15 mg/kg, ip; type: ADME, organism-based; design: dose 15 mg/kg, route intraperitoneal
# Plasma [2] = experiment: Stability in mouse plasma; type: ADME, cell-free
# Plasma [3] = experiment: Stability in rat plasma; type: ADME, cell-free
# Mus musculus [4] = experiment: Suppression of dextran sulfate sodium-induced colitis in mouse assessed as improved rectal bleeding index at 150 mg/kg, ip administered daily for 10 days by macroscopic analysis; type: functional, organism-based; design: dose 150 mg/kg
# Mus musculus [5] = experiment: Blockade of dextran sulfate sodium-induced mTOR activation in mouse at 150 mg/kg, ip administered daily for 10 days by Western blot analysis; type: functional, organism-based; design: dose 150 mg/kg
# Mus musculus [6] = experiment: Protection against dextran sulfate sodium-induced crypt damage in mouse at 150 mg/kg, ip administered daily for 10 days by histological analysis; type: functional, organism-based; design: dose 150 mg/kg
# PBMC = experiment: Inhibition of concanavalin A-induced IFN-gamma production in human PBMC cells; type: functional, cell-based
# Plasma [7] = experiment: Stability in human plasma; type: ADME, cell-free
# [8] = Cmax in mouse plasma at 100 mg/kg, ip; type: ADME, organism-based; design: dose 100 mg/kg, route intraperitoneal
# Mus musculus [9] = experiment: Inhibition of dextran sulfate sodium-induced weight loss in mouse at 150 mg/kg, ip administered daily for 10 days by macroscopic analysis; type: functional, organism-based; design: dose 150 mg/kg
# Mus musculus [10] = experiment: Suppression of dextran sulfate sodium-induced colitis in mouse assessed as decrease in disease activity index at 150 mg/kg, ip administered daily for 10 days by macroscopic analysis; type: functional, organism-based; design: dose 150 mg/kg
# Mus musculus [11] = experiment: Decrease in dextran sulfate sodium-induced edema in mouse at 150 mg/kg, ip administered daily for 10 days by histological analysis; type: functional, organism-based; design: dose 150 mg/kg
# Mus musculus [12] = experiment: Suppression of dextran sulfate sodium-induced colitis in mouse assessed as inhibition of leukocyte infiltration in colonic mucosa at 150 mg/kg, ip administered daily for 10 days by histological analysis; type: functional, organism-based; design: dose 150 mg/kg
# Mus musculus [13] = experiment: Reversal of dextran sulfate sodium-induced shortening of colon in mouse at 150 mg/kg, ip administered daily for 10 days by macroscopic analysis; type: functional, organism-based; design: dose 150 mg/kg
compound,measurement,setting,value
CC(Cl)C(=O)Nc1ccc(C#N)nc1 (centres undefined),Cmax,[1],30 µM
same,Stability,Plasma [2],Stable
same,Stability,Plasma [3],Stable
same,Activity,Mus musculus [4],Active
same,Activity,Mus musculus [5],Active
same,Activity,Mus musculus [6],Active
same,Activity,PBMC,Dose-dependent effect
same,Stability,Plasma [7],Stable
same,Cmax,[8],180 µM
same,inhibition,Mus musculus [9],Active
same,Activity,Mus musculus [10],Active
same,Activity,Mus musculus [11],Active
same,inhibition,Mus musculus [12],Active
same,Activity,Mus musculus [13],Active

# Source: ChEMBL document CHEMBL1136899, “Synthesis and therapeutic evaluation of pyridyl based novel mTOR inhibitors” (Bioorg Med Chem Lett, 2009)
